Experimental findings from US6146868A, “Glucuronoxylomannan (GXM)-O-acetylhydrolase of cryptococcus neoformans and uses thereof” (Research Development Foundation, priority 1999, dated 2000) are described below.

For assay [1], the system named is recombinant glucuronoxylomannan (GXM)-O-acetylhydrolase, SEQ ID No. 31 (His-tagged short clone expressed in E. coli). Nature of the assay: PNP-acetate plate assay, kinetics (Km), recombinant enzyme. It counts as biochemical, mixed unknown bacterial culture from sewage. Conditions: pH 7.2, A405 kinetic reading, hyperbolic regression, read-out: Km for PNP-acetate (KPNPA). As for the experimental part: PNP-Carboxyl Ester Assay: This assay determines specificity of enzymatic activity for five different PNP-fatty acid esters: PNP-acetate (2 carbon), PNP-propionate (3 carbon), PNP-butyrate (4 carbon), PNP-laurate (12 carbon), and PNP-palmitate (16 carbon). The assay was set up in a 96-well plate and read at 405 n m on a BIO-TEK Ceres 900 plate reader. Each reaction consisted of: 200 μl PBS buffer, pH 7.2; 50 μl PNP-ester solution, 0.77 mM; and 50 μl of enzyme (containing various levels of enzyme) added just prior to reading at 405 nm. Non-enzymic hydrolysis was measured in a solution that consisted of 200 μl PBS buffer, pH 7.2; 50 μl PNP-ester solution, 0.77 mM; and 50 μl PBS, pH 7.2, the buffer replacing the enzyme. […] This assay was read within 30 seconds in a single point manner as the enzyme works rapidly on this substrate.
PNP-Acetate Assay: This assay was routinely used to determine enzymatic activity in samples of recombinant enzyme at the various steps in its expression and purification as described above, but with the PNP-acetate substrate only. This reaction was measured at pH=6.2 to 8.2. […]
Kinetics: Kinetics of the enzyme were investigated through use of the PNP-acetate plate assay and the competition assay described above. The plates were read on the BIO-TEK Ceres 900 plate reader at 405 nm with a kinetic protocol that took readings every 20 seconds for 3 minutes. […]

In assay [2] the test system is native (wild-type) glucuronoxylomannan (GXM)-O-acetylhydrolase purified from mixed unknown bacterial culture. Nature of the assay: PNP-acetate plate assay, kinetics (Km), native enzyme. It counts as biochemical, mixed unknown bacterial culture from sewage. The following applies: pH 7.2, A405 kinetic reading, hyperbolic regression, read-out: Km for PNP-acetate (KPNPA). The source says:
Purification, LysC Degradation and Amino Acid Sequencing of Wild-Type Enzyme: The native GXM O-acetylhydrolase was purified from a mixed unknown bacterial culture that was collected from sewage. The purification was achieved by the following steps: cholate extraction, ammonium sulfate precipitation, molecular sieve chromatography, and ion exchange on a mono Q column followed by a mono S column.
PNP-Carboxyl Ester Assay: This assay determines specificity of enzymatic activity for five different PNP-fatty acid esters: PNP-acetate (2 carbon), PNP-propionate (3 carbon), PNP-butyrate (4 carbon), PNP-laurate (12 carbon), and PNP-palmitate (16 carbon). The assay was set up in a 96-well plate and read at 405 n m on a BIO-TEK Ceres 900 plate reader. Each reaction consisted of: 200 μl PBS buffer, pH 7.2; 50 μl PNP-ester solution, 0.77 mM; and 50 μl of enzyme (containing various levels of enzyme) added just prior to reading at 405 nm. Non-enzymic hydrolysis was measured in a solution that consisted of 200 μl PBS buffer, pH 7.2; 50 μl PNP-ester solution, 0.77 mM; and 50 μl PBS, pH 7.2, the buffer replacing the enzyme. Standard curves were obtained by measurement of the A405 of solutions of known amounts of para-nitrophenol. This assay was read within 30 seconds in a single point manner as the enzyme works rapidly on this substrate. […]

As a reminder, the Km is the concentration of substrate that gives half-maximal velocity. On to `CC(=O)Oc1ccc([N+](=O)[O-])cc1` [PNP-acetate], for which the Km is 1340 µM in assay [1] and 1260 µM in assay [2].
